One test concerns MCF7. Put plainly: Anticancer activity against human MCF7 cells assessed as inhibition of proliferation after 72 hrs by MTT assay. The test is classed as functional, cell-based. The note with it: MCF7, 72 h. (In general: Tetrazolium assays rely on reduction of a dye to a coloured formazan, in cell work by metabolically active cells.)
A short description of test [1]: Anticancer activity against human EC109 cells assessed as inhibition of proliferation after 72 hrs by MTT assay. The note with it: ECa-109, 72 h. The test is classed as functional, cell-based.
The nature of test [2]: Anticancer activity against mouse B16F10 cells assessed as inhibition of proliferation after 72 hrs by MTT assay. The test is classed as functional, cell-based. The note with it: B16-F10, 72 h.
The test system of another test is MGC-803. Put plainly: Anticancer activity against human MGC803 cells assessed as inhibition of proliferation after 72 hrs by MTT assay. The format is functional, cell-based. The note with it: MGC-803, 72 h.
Test [3] in a line: Cytotoxicity against human GES-1 cells assessed as inhibition of proliferation after 72 hrs by MTT assay. The format is cell-based. The note with it: GES1, 72 h.

As to `Cc1ccc(Nc2nc(SCc3cn(CC(=O)NC(=O)Nc4ccccn4)nn3)nc(-c3ccc(Br)cc3)c2C#N)cc1`, the IC50 (commonly the concentration needed to halve the response being measured) in the test on MCF7 was determined as 14.4 µM; in test [1], 7.92 µM; in test [2] it was 8.16 µM; in the test with MGC-803 it was 13.9 µM.

For `CC(C)c1ccc(-c2nc(SCc3cn(CC(=O)NC(=O)Nc4ccccn4)nn3)nc(Nc3ccccc3)c2C#N)cc1`, the IC50 in the test with MCF7 is above 64 µM; in test [1], above 64 µM; in test [2], 14.3 µM; in the test with MGC-803 it was 15.8 µM.

Turning to `Cc1ccc(Nc2nc(SCc3cn(CC(=O)NC(=O)Nc4ccccn4)nn3)nc(-c3ccccc3)c2C#N)cc1`, the IC50 is above 64 µM in the test with MCF7, 24.6 µM in test [1], 3.3 µM in test [2] and 7.87 µM in the test with MGC-803.

In the case of `Cc1ccc(-c2nc(SCc3cn(CC(=O)NC(=O)Nc4ccccn4)nn3)nc(Nc3cccc(C(F)(F)F)c3)c2C#N)cc1`, the half-inhibitory concentration (IC50) in the test with MCF7 was 6.12 µM; in test [1] it was 32.3 µM; in test [2] it was 9.58 µM; in the test on MGC-803, 7.58 µM.

In the case of `CC(C)c1ccc(Nc2nc(SCc3cn(CC(=O)NC(=O)Nc4ccccn4)nn3)nc(-c3ccc(Cl)cc3)c2C#N)cc1`, the 50% inhibitory concentration (IC50) is 39.9 µM in the test on MCF7, above 64 µM in test [1], 1.59 µM in test [2] and 16.9 µM with MGC-803.

Turning to `O=c1[nH]cc(F)c(=O)[nH]1` [FLUOROURACIL], the IC50 with MCF7 was found to be 9.12 µM; in test [1] it was 11.6 µM; in test [2] it was 1.43 µM; in the test with MGC-803, 8.43 µM.

As to `Cc1ccc(-c2nc(SCc3cn(CC(=O)NC(=O)Nc4ccccn4)nn3)nc(Nc3ccc(C(C)C)cc3)c2C#N)cc1`, the half-maximal inhibitory concentration (IC50) in test [3] is above 64 µM; in the test on MCF7, above 64 µM; in test [1] it was 7.45 µM; in test [2], 0.035 µM; in the test with MGC-803 it was 19.3 µM.

`Cc1ccc(Nc2nc(SCc3cn(CC(=O)NC(=O)Nc4ccccn4)nn3)nc(-c3ccc(C(C)C)cc3)c2C#N)cc1`: the IC50 in test [3] is above 64 µM; in the test on MCF7, above 64 µM; in test [1] it was 6.7 µM; in test [2] it was 3.06 µM; in the test with MGC-803 it was 3.36 µM.

For `COc1cc(-c2nc(SCc3cn(CC(=O)NC(=O)Nc4ccccn4)nn3)nc(Nc3ccc(Cl)cc3)c2C#N)cc(OC)c1OC`, the half-inhibitory concentration (IC50) was 45.1 µM in the test with MCF7, above 64 µM in test [1], 1.11 µM in test [2] and 17.5 µM in the test on MGC-803.

Turning to `CC(C)c1ccc(-c2nc(SCc3cn(CC(=O)NC(=O)Nc4ccccn4)nn3)nc(Nc3ccccc3O)c2C#N)cc1`, the IC50 is above 64 µM in the test on MCF7, 7.38 µM in test [1], 16.1 µM in test [2] and 16.4 µM with MGC-803.

As to `CC(C)c1ccc(-c2nc(SCc3cn(CC(=O)NC(=O)Nc4ccccn4)nn3)nc(Nc3ccc(Cl)cc3)c2C#N)cc1`, the half-inhibitory concentration (IC50) with MCF7 was above 64 µM; in test [1], 11.2 µM; in test [2], 0.86 µM; in the test on MGC-803 it was above 64 µM.

Regarding `COc1ccccc1Nc1nc(SCc2cn(CC(=O)NC(=O)Nc3ccccn3)nn2)nc(-c2ccc(C)cc2)c1C#N`, the half-inhibitory concentration (IC50) in test [3] is above 64 µM; with MCF7, 19.7 µM; in test [1], 7.85 µM; in test [2], 8.58 µM; in the test with MGC-803, 7.96 µM.

Turning to `CC(C)c1ccc(-c2nc(SCc3cn(CC(=O)NC(=O)Nc4ccccn4)nn3)nc(Nc3ccccc3Cl)c2C#N)cc1`, the IC50 in the test with MCF7 was 43.7 µM; in test [1], 23.4 µM; in test [2], 6.79 µM; in the test with MGC-803, 19.7 µM.

With `Cc1ccc(Nc2nc(SCc3cn(CC(=O)NC(=O)Nc4ccccn4)nn3)nc(-c3ccc(Cl)cc3)c2C#N)cc1`, the IC50 with MCF7 stood at 27 µM; in test [1], 13.1 µM; in test [2] it was 1.32 µM; in the test on MGC-803 it was 24 µM.

For the compound `CC(C)c1ccc(Nc2nc(SCc3cn(CC(=O)NC(=O)Nc4ccccn4)nn3)nc(-c3ccc(Br)cc3)c2C#N)cc1`, the IC50 in test [3] was above 64 µM; with MCF7, 30.6 µM; in test [1], above 64 µM; in test [2], 0.042 µM; in the test on MGC-803, 15.6 µM.

`Cc1ccccc1Nc1nc(SCc2cn(CC(=O)NC(=O)Nc3ccccn3)nn2)nc(-c2ccc(C(C)C)cc2)c1C#N`: the concentration for half-maximal inhibition (IC50) is above 64 µM in the test with MCF7, 7.23 µM in test [1], 18.6 µM in test [2] and 19 µM in the test on MGC-803.

For the compound `COc1ccc(Nc2nc(SCc3cn(CC(=O)NC(=O)Nc4ccccn4)nn3)nc(-c3ccc(C)cc3)c2C#N)cc1`, the 50% inhibitory concentration (IC50) in test [3] was 35.7 µM; in the test on MCF7, 23.4 µM; in test [1], 5.87 µM; in test [2] it was 8.75 µM; in the test with MGC-803, 1.7 µM.

Consider `Cc1cccc(Nc2nc(SCc3cn(CC(=O)NC(=O)Nc4ccccn4)nn3)nc(-c3ccc(C(C)C)cc3)c2C#N)c1`, for which the IC50 was above 64 µM in the test with MCF7, 7.32 µM in test [1], 1.65 µM in test [2] and 25.3 µM in the test on MGC-803.

Consider `COc1cc(-c2nc(SCc3cn(CC(=O)NC(=O)Nc4ccccn4)nn3)nc(Nc3cccc(Cl)c3)c2C#N)cc(OC)c1OC`, for which the concentration for half-maximal inhibition (IC50) is 24 µM in the test with MCF7, above 64 µM in test [1], 1.42 µM in test [2] and 15.4 µM in the test on MGC-803.

On to `CC(C)c1ccc(-c2nc(SCc3cn(CC(=O)NC(=O)Nc4ccccn4)nn3)nc(Nc3cccc(C(F)(F)F)c3)c2C#N)cc1`, for which the IC50 in the test with MCF7 is 8.62 µM; in test [1] it was 24.2 µM; in test [2], 1.7 µM; in the test with MGC-803 it was above 64 µM.

For the compound `CC(C)c1ccc(-c2nc(SCc3cn(CC(=O)NC(=O)Nc4ccccn4)nn3)nc(Nc3ccc(F)cc3)c2C#N)cc1`, the half-maximal inhibitory concentration (IC50) in the test on MCF7 is above 64 µM; in test [1], above 64 µM; in test [2], 7.25 µM; with MGC-803, 17.5 µM.

Regarding `COc1cc(-c2nc(SCc3cn(CC(=O)NC(=O)Nc4ccccn4)nn3)nc(Nc3cccc(C(F)(F)F)c3)c2C#N)cc(OC)c1OC`, the concentration for half-maximal inhibition (IC50) in test [3] is above 64 µM; in the test on MCF7, 8.14 µM; in test [1] it was above 64 µM; in test [2], 24.4 µM; in the test with MGC-803, 8.21 µM.

On to `CC(C)c1ccc(-c2nc(SCc3cn(CC(=O)NC(=O)Nc4ccccn4)nn3)nc(Nc3cccc([N+](=O)[O-])c3)c2C#N)cc1`, for which the IC50 in the test on MCF7 was 25.9 µM; in test [1], 31.3 µM; in test [2], 26.4 µM; with MGC-803 it was above 64 µM.

In the case of `CC(C)c1ccc(-c2nc(SCc3cn(CC(=O)NC(=O)Nc4ccccn4)nn3)nc(Nc3ccccc3F)c2C#N)cc1`, the IC50 with MCF7 is above 64 µM; in test [1], 15.5 µM; in test [2], 8.38 µM; with MGC-803, above 64 µM.

As to `COc1ccc(Nc2nc(SCc3cn(CC(=O)NC(=O)Nc4ccccn4)nn3)nc(-c3ccc(C(C)C)cc3)c2C#N)cc1`, the half-inhibitory concentration (IC50) in the test with MCF7 is above 64 µM; in test [1], 5.42 µM; in test [2] it was 0.36 µM; in the test on MGC-803, above 64 µM.

Turning to `CC(C)c1ccc(-c2nc(SCc3cn(CC(=O)NC(=O)Nc4ccccn4)nn3)nc(Nc3cccc(Cl)c3)c2C#N)cc1`, the IC50 in the test on MCF7 is 18 µM; in test [1], 13.3 µM; in test [2], 1.13 µM; in the test on MGC-803, above 64 µM.

Take `COc1cc(-c2nc(SCc3cn(CC(=O)NC(=O)Nc4ccccn4)nn3)nc(Nc3ccc(C(C)C)cc3)c2C#N)cc(OC)c1OC`: the half-maximal inhibitory concentration (IC50) in the test with MCF7 was 30.9 µM; in test [1], above 64 µM; in test [2] it was 1.21 µM; with MGC-803, 35.5 µM.

On to `CC(C)c1ccc(Nc2nc(SCc3cn(CC(=O)NC(=O)Nc4ccccn4)nn3)nc(-c3ccc(C(C)C)cc3)c2C#N)cc1`, for which the 50% inhibitory concentration (IC50) in the test with MCF7 is 28.6 µM; in test [1], 2.49 µM; in test [2] it was 4.38 µM; in the test with MGC-803 it was 15.8 µM.

As to `Cc1ccc(Nc2nc(SCc3cn(CC(=O)NC(=O)Nc4ccccn4)nn3)nc(-c3ccc(C)cc3)c2C#N)cc1`, the concentration for half-maximal inhibition (IC50) in the test with MCF7 is 39.6 µM; in test [1], above 64 µM; in test [2], 1.01 µM; with MGC-803, 9.89 µM.

Take `Cc1ccc(-c2nc(SCc3cn(CC(=O)NC(=O)Nc4ccccn4)nn3)nc(Nc3cccc(Cl)c3)c2C#N)cc1`: the 50% inhibitory concentration (IC50) with MCF7 came out at 14.9 µM; in test [1], 25.6 µM; in test [2], 7.58 µM; with MGC-803, 7.89 µM.

As for `N#Cc1c(Nc2cccc(C(F)(F)F)c2)nc(SCc2cn(CC(=O)NC(=O)Nc3ccccn3)nn2)nc1-c1ccc(Br)cc1`, the IC50 in test [3] turned out to be 38.7 µM; in the test on MCF7, 3.11 µM; in test [1], 2.96 µM; in test [2], 4.55 µM; with MGC-803, 3.6 µM.

As for `COc1ccccc1Nc1nc(SCc2cn(CC(=O)NC(=O)Nc3ccccn3)nn2)nc(-c2ccc(C(C)C)cc2)c1C#N`, the half-maximal inhibitory concentration (IC50) with MCF7 is 19.3 µM; in test [1], 8.96 µM; in test [2] it was 34.6 µM; with MGC-803, above 64 µM.

Values taken from ChEMBL document CHEMBL3400121, “Design and synthesis of novel 1,2,3-triazole-pyrimidine-urea hybrids as potential anticancer agents” (Bioorg Med Chem Lett, 2015).
